US11752154B2, “Pharmaceutical compositions comprising sepiapterin and uses thereof” (PTC Therapeutics MP, Inc., priority 2017, dated 2023)
One block for each molecule: values may come before it.

Tests used:
[1] = Kinetic solubility and disproportionation of sepiapterin salts and/or co-crystals in water and Medisca Oral Mix (Example 8); format: physicochemical; conditions: for Solubility / Form change / Purity (area %) / solubility at 1 hr / solubility at 4 hr / solubility at 24 hr: RT; for Solubility / solubility at 1 hr / solubility at 4 hr / solubility at 24 hr: calculated using freebase, target conc. ~7 mg/mL; for Form change: residual solids by XRPD; for Purity (area %): supernatant, for reference only; for form of residual solids: water and Medisca Oral Mix, after 1 hour; for solubility at 1 hr / solubility at 4 hr / solubility at 24 hr: thermodynamic from solid
Experimental: The kinetic solubility was evaluated for nicotinate, phosphate, L-tartrate, and fumarate salts and/or co-crystals of sepiapterin in water and Medisca Oral Mix. X-ray powder diffraction (XRPD) was performed for the residual solids to identify form change/disproportionation. Solids were suspended into the media with target conc. of ˜7 mg/mL (calculated by freebase). The suspensions were agitated on a rolling incubator at 25 rpm for 1, 4 and 24 hrs. At each time point, 1 mL of the suspension was pipetted out for centrifugation at 10000 rpm (2 min) and filtration through 0.45 μm membrane to obtain supernatant for HPLC solubility and pH tests, the residual solids were analyzed by XRPD.

[2] = Stability analysis of salts and/or co-crystals of sepiapterin (Example 7); format: physicochemical; conditions: 25° C./60% RH and 40° C./75% RH, two weeks
Experimental: The stability of the prepared salts and/or co-crystals was analyzed after […] at 25° C. and 60% relative humidity and 40° C. and 75% relative humidity. […] None of the phosphate, tartrate, or nicotinate salts and/or co-crystals underwent a form change during the stability testing, and each of them retained greater than 97% purity over the two weeks of the study. In fact, both the tartrate and nicotinate both retained greater than 99% purity.

[3] = Determination of BH4 and sepiapterin levels in plasma, liver, kidney and urine after sepiapterin or BH4 (Example 4); format: in vivo; conditions: for kidney, liver and urine exposure to BH4 versus dose level: 20, 60 or 180 mg/kg
Experimental: Animals were administered the test items, sepiapterin or BH4, at dose levels of 20, 60 or 180 mg/kg. Blood, liver, kidney and urine samples (where possible) were collected from 3 animals/timepoints/group on the day of dosing at 0 (pre-dose, controls only), 0.5, 1, 2, 4, and 8 hours post-dose. Samples were assayed for sepiapterin or BH4 (not quantified in plasma) and non-compartmental pharmacokinetic analysis was performed.

[4] = Medisca Oral Mix, 1 hr, listed as L-tartrate salt and/or co-crystal
[5] = Water, 1 hr, listed as L-tartrate salt and/or co-crystal
[6] = Water, 4 hr, listed as L-tartrate salt and/or co-crystal
[7] = Water, 24 hr, listed as L-tartrate salt and/or co-crystal
[8] = Medisca Oral Mix, 24 hr, listed as phosphate salt and/or co-crystal
[9] = Water, 1 hr, listed as phosphate salt and/or co-crystal
[10] = Water, 4 hr, listed as phosphate salt and/or co-crystal
[11] = Water, 24 hr, listed as phosphate salt and/or co-crystal

SMILES: C[C@H](O)C(=O)C1=Nc2c(nc(N)[nH]c2=O)NC1 [L-Tartrate]
Solubility [1, 4]: 2000 µg/mL | Solubility [1, 5]: 1600 µg/mL | Solubility [1, 6]: 1800 µg/mL | Solubility [1, 7]: 1800 µg/mL | Form change ([1]; Medisca Oral Mix, 1 hr, ** = low crystallinity, listed as L-tartrate salt and/or co-crystal): Yes | Form change ([1]; Medisca Oral Mix, 4 hr, ** = low crystallinity, listed as L-tartrate salt and/or co-crystal): Yes | Form change ([1]; Medisca Oral Mix, 24 hr, ** = low crystallinity, listed as L-tartrate salt and/or co-crystal): Yes | Form change [1, 5]: Yes | Form change [1, 6]: Yes | Form change [1, 7]: Yes | Purity (area %) [1, 4]: 99.68 area % | Purity (area %) ([1]; Medisca Oral Mix, 4 hr, listed as L-tartrate salt and/or co-crystal): 99.54 area % | Purity (area %) ([1]; Medisca Oral Mix, 24 hr, listed as L-tartrate salt and/or co-crystal): 95.67 area % | Purity (area %) [1, 5]: 99.34 area % | Purity (area %) [1, 6]: 99.07 area % | Purity (area %) [1, 7]: 95.61 area % | form of residual solids [1]: converted to freebase | form change during the stability testing [2]: None

SMILES: C[C@H](O)C(=O)C1=Nc2c(nc(N)[nH]c2=O)NC1 [Nicotinate]
solubility at 1 hr ([1]; Medisca Oral Mix, aqueous with cosolvent or surfactant or cyclodextrin, 1 hr): 2600 µg/mL | solubility at 4 hr ([1]; Medisca Oral Mix, aqueous with cosolvent or surfactant or cyclodextrin, 4 hr): 3100 µg/mL | solubility at 24 hr ([1]; Medisca Oral Mix, aqueous with cosolvent or surfactant or cyclodextrin, 24 hr): 3500 µg/mL | Form change ([1]; Medisca Oral Mix, 1 hr, ** = low crystallinity, listed as nicotinate salt and/or co-crystal): Yes | Form change ([1]; Medisca Oral Mix, 4 hr, ** = low crystallinity, listed as nicotinate salt and/or co-crystal): Yes | Form change ([1]; Medisca Oral Mix, 24 hr, ** = low crystallinity, listed as nicotinate salt and/or co-crystal): Yes | Form change ([1]; Water, 1 hr, listed as nicotinate salt and/or co-crystal): Yes | Form change ([1]; Water, 4 hr, listed as nicotinate salt and/or co-crystal): Yes | Form change ([1]; Water, 24 hr, listed as nicotinate salt and/or co-crystal): Yes | form of residual solids [1]: converted to freebase | solubility at 1 hr ([1]; water, 1 hr): 1500 µg/mL | solubility at 4 hr ([1]; water, 4 hr): 2300 µg/mL | solubility at 24 hr ([1]; water, 24 hr): 1800 µg/mL | form change during the stability testing [2]: None

SMILES: C[C@H](O)[C@H](O)[C@H]1CNc2nc(N)[nH]c(=O)c2N1 [BH4, tetrahydrobiopterin, reference compound]
kidney, liver and urine exposure to BH4 versus dose level [3]: decreased as the dose level increased

More lines, main results first:

kidney, liver and urine exposure to BH4 versus dose level [3]: decreased as the dose level increased | kidney BH4 Cmax following sepiapterin administration versus BH4 alone ([3]; except at the high-dose): similar | secondary peak of absorption (plasma sepiapterin) ([3]; low- and mid-dose levels, post-dose): 8 h | sepiapterin exposure amongst the analyzed matrices ([3]; plasma, liver, kidney, urine): highest in urine | dose proportionality of circulating sepiapterin exposure ([3]; plasma, entire dose range): much greater than dose proportional | time of maximum sepiapterin plasma concentrations ([3]; post-dose, sepiapterin 20, 60 or 180 mg/kg): 30 minutes or 2 hours | dose proportionality of sepiapterin exposure ([3]; urine, liver and kidney, entire dose range): less than dose proportional
SMILES: C[C@H](O)C(=O)C1=Nc2c(nc(N)[nH]c2=O)NC1 [sepiapterin]
sepiapterin detected in the liver and kidney ([3]; sepiapterin 20, 60 or 180 mg/kg): only at 30 minutes post-dose and only in the liver for the mid- or high-dose

Solubility [1, 8]: 2100 µg/mL | Solubility [1, 9]: 1700 µg/mL | Solubility [1, 10]: 2000 µg/mL | Solubility [1, 11]: 1900 µg/mL | Form change ([1]; Medisca Oral Mix, 1 hr, ** = low crystallinity, listed as phosphate salt and/or co-crystal): Yes** | Form change ([1]; Medisca Oral Mix, 4 hr, ** = low crystallinity, listed as phosphate salt and/or co-crystal): Yes** | Form change ([1]; Medisca Oral Mix, 24 hr, ** = low crystallinity, listed as phosphate salt and/or co-crystal): Yes** | Form change [1, 9]: Yes | Form change [1, 10]: Yes | Form change [1, 11]: Yes | Purity (area %) ([1]; Medisca Oral Mix, 1 hr, listed as phosphate salt and/or co-crystal): 99.23 area % | Purity (area %) ([1]; Medisca Oral Mix, 4 hr, listed as phosphate salt and/or co-crystal): 98.95 area % | Purity (area %) [1, 8]: 87.63 area % | Purity (area %) [1, 9]: 89.92 area % | Purity (area %) [1, 10]: 89.52 area % | Purity (area %) [1, 11]: 82.64 area % | form of residual solids [1]: converted to freebase | form change during the stability testing [2]: None
SMILES: C[C@H](O)C(=O)C1=Nc2c(nc(N)[nH]c2=O)NC1 [Phosphate]
